Results as given in EP0881896B1, “SKIN TREATMENT WITH SALICYLIC ACID ESTERS AND RETINOIDS” (FD MANAGEMENT, INC., priority 1996, dated 1997).
Where two headings read alike, the source gives them in different places.

System: sebocytes
Assay: In Vitro sebocyte Lipogenesis Assay (14-C acetate incorporation into lipid)
Format: cell-based, Human
Text: Dermatologic disorders, chronoaging and environmental abuse all have some relationship to sebum production. The present example reports an in vitro analysis of sebum suppression by use of a combination of salicylate ester and retinoid.
Human sebaceous glands were isolated from the nose of a person and cultured using submerged tissue culture techniques (Bajor et al, J. Invest, Dermatol, 102:1994. P. 564). These sebocytes accumulate intracellular lipid droplets characteristic of mature human sebum.
Harvested and passaged sebocytes were added to each well of a 48 well tissue culture plate and incubated at 37°C in the presence of 7.5% CO2 for 14 days. The growth medium was changed three times per week. On the day of experimentation, the growth medium was removed and the sebocytes washed three times with phosphate buffered saline (PBS). Fresh PBS in 0.5 ml amount was added to each well and 10 microliters of active agent speculated to inhibit lipogenesis. Triplicate wells were utilized for each sample. […] The cultures were incubated at 37°C/7.5% CO2 for 30 minutes. Radioactive label was prepared by adding 100 ul of 14-C labelled acetic acid (Amersham, sodium salt, specific activity of 56 mCi/mmol) to 10 mL of 50 mM sodium acetate buffer. Then 50 ul was added to each well containing the sebocytes and active agents. The cultures were returned to the incubator for 4 hours. Thereafter the treatments and label were removed and the sebocytes rinsed three times with fresh PBS. Sebocytes were harvested and 10 microliters removed and set aside for protein assessment. The remaining samples containing the 14-C label were extracted and the label counted using a Beckman scintillation counter. Triplicates were performed for each sample.
For each 48 well tissue culture plate, 16 samples could be analyzed. Of these, 1 sample was reserved for PBS, 1 sample for DMSO, and 1 sample for phenol red leaving 13 remaining samples. When TDS (tridecyl salicylate) was analyzed in the presence of other compounds, an additional set of wells was used for measuring the effects of TDS alone. When multiple 48 well plates were used, TDS was included in each plate.

[1] = combination with tridecyl salicylate, conclusion from Tables VIII-X

CC1=C(/C=C/C(C)=C/C=C/C(C)=C/CO)C(C)(C)CCC1 [Retinol]
activity with tridecyl salicylate (synergistic or additive) (similar trials with retinol instead of retinyl linoleate, retinol at very low levels): synergistic

CCCCC/C=C\C/C=C\CCCCCCCC(=O)OC/C=C(C)/C=C/C=C(C)/C=C/C1=C(C)CCCC1(C)C [Retinyl Linoleate, retinyl linoleate]
inhibition at 10 µM (Homo sapiens, Table IX, Retinyl Linoleate 10 uM alone, read-out: Retinyl Linoleate % Actual Reduction (SD)): -15%
inhibition at 50 µM (Homo sapiens, Table IX, Retinyl Linoleate 50 uM alone, read-out: Retinyl Linoleate % Actual Reduction (SD)): -7.4%
inhibition at 100 µM (Homo sapiens, Table IX, Retinyl Linoleate 100 uM alone, read-out: Retinyl Linoleate % Actual Reduction (SD)): 1.9%
inhibition at 0.1 µM (Homo sapiens, Table VIII, Retinyl Linoleate 100 nM alone, read-out: Retinyl Linoleate % Actual Reduction (SD)): 4.4%
inhibition at 1 µM (Homo sapiens, Table VIII, Retinyl Linoleate 1 uM alone, read-out: Retinyl Linoleate % Actual Reduction (SD)): 6%
inhibition at 10 µM (Homo sapiens, Table VIII, Retinyl Linoleate 10 uM alone, read-out: Retinyl Linoleate % Actual Reduction (SD)): 13.8%
inhibition at 100 µM (Homo sapiens, Table VIII, Retinyl Linoleate 100 uM alone, read-out: Retinyl Linoleate % Actual Reduction (SD)): 20.3%
activity with tridecyl salicylate (synergistic or additive) [1]: synergistic activity

CCCCCCCCCCCCCCCC(=O)OC/C=C(C)/C=C/C=C(C)/C=C/C1=C(C)CCCC1(C)C [Retinyl Palmitate, retinyl palmitate, reference compound]
inhibition at 10 µM (Homo sapiens, Table X, Retinyl Palmitate 10 uM alone, read-out: Retinyl Palmitate % Actual Reduction (SD)): 12.2%
inhibition at 100 µM (Homo sapiens, Table X, Retinyl Palmitate 100 uM alone, read-out: Retinyl Palmitate % Actual Reduction (SD)): 12%
activity with tridecyl salicylate (synergistic or additive) [1]: only an additive effect

CCCCCCCCCCCCCOC(=O)c1ccccc1O [TDS, tridecyl salicylate]
inhibition at 50 µM (Homo sapiens, Table IX, 50 uM TDS alone, read-out: Reduction): 17.9%
inhibition at 100 µM (Homo sapiens, Table IX, 100 uM TDS alone, read-out: Reduction): 30.8%
inhibition at 10 µM (Homo sapiens, Table VIII, 10 uM TDS alone, read-out: Reduction): 19.7%
inhibition at 100 µM (Homo sapiens, Table X, 100 uM TDS alone, read-out: Reduction): 38.7%
